According to publication PMC8468767, “Optimisation of a Microfluidic Method for the Delivery of a Small Peptide” (Pharmaceutics, 2021):
Converted amounts (≈) assume the structure as drawn. “And” between values parts separate entries of the source, which are not always exact repeats. Equal entries are not always repeated. Bridge positions count the residues as written; N and C are the ends. Square brackets hold non-standard residues; d marks the D form. Peptide text beside a SMILES is read from it. * marks the point of attachment. Hydrocinnamoyl = O=C(CCc1ccccc1)*; dCha = N[C@H](CC1CCCCC1)C(=O)O; Orn = NCCC[C@H](N)C(=O)O

What was measured:
[1] = Plasma pharmacokinetics after a single IV dose in mice; assay type: in vivo; details: male C57BL/6J mice, LC-MS/MS
Protocol: The C5aR1 peptide antagonist concentrations were quantified by a previously developed and validated LC–MS/MS method. Briefly, the LC–MS/MS system consisted of an API 3200 (AB SCIEX) triple quadrupole LC–MS/MS mass spectrometer coupled with an Agilent 1200 series HPLC system (Agilent Technologies, Santa Clara CA, USA). For sample processing, 10 µL of the solution containing the C5aR1 peptide antagonist was mixed with 10 µL of internal standard (AcF-[OPdChaWR]) dissolved in solvent (ACN) followed by sample processing, extraction, supernatant isolation, drying, and reconstitution in a 75% methanol-in-water solution. A small volume of processed sample (approximately 50 µL) was used for the LC–MS measurement. The autosampler was set at 4 °C and the column oven temperature was maintained in the range of 25 ± 1 °C. The system control and data acquisition were executed by Analyst software (AB SCIEX, Applied Biosystems Inc., Framingham, MA, USA, version 1.5.1). Chromatographic separation was implemented using a Kinetex EVO C18 analytical column (100 mm × 2.1 mm, 100 Å, 5 µm, Phenomenex Inc., Torrance, CA, USA) under binary gradient conditions using mobile phase A (milliQ water containing 0.1% formic acid) and mobile phase B (acetonitrile containing 0.1% formic acid) with a variable flow rate, as described in Kumar et al..
The plasma pharmacokinetic (PK) profile and biodistribution of peptide-loaded nanoparticles (1 mg/kg equivalent dose of free peptide) vs. free peptide were assessed in mice after intravenous (IV; via tail vein) dosing. Serial blood samples were collected via a tail vein using a microsampling technique. Blood samples were collected at 0.04, 0.25, 0.5, 0.75, 1, 1.5, […], 4, 6, and 24 h for both groups and then 48, 72, 96, and 120 h for the nanoparticle group. The blood samples were centrifuged at 2000× g for 10 min at 4 °C, and the separated plasma samples (10 µL) were collected, diluted with 100 µL of milliQ water and 10 µL of internal standard, filtered through Microcon®-10 centrifugal filters (Merck, Melbourne, VIC, Australia) to separate nanoparticles from released peptide, and stored at −80 °C until time of analysis. For tissue distribution, on the terminal day, i.e., day 1 for native peptide and day 5 for the nanoparticle group, animals were transcardially perfused using PBS solution to remove circulatory peptide/formulation, and tissue samples were collected, processed as described in our previously published method, and filtered as mentioned above.
On the day of analysis, samples were processed for C5aR1 peptide antagonist concentrations using the above-mentioned LC–MS/MS method as described previously. […]

[2] = Solubility of the peptide in water; assay type: physicochemical; details: method not described
[3] = mice, cited from earlier work
Description: The hexapeptide, phenylpropanoic acid-[ornithine-proline-d-cyclohexylalanine-tryptophan-arginine] (HC-[OPdChaWR]) is an antagonist of the C5a receptor 1 (C5aR1) of the innate immune complement cascade.

- time for which plasma peptide levels are measurable after dosing ([1]; single IV 1 mg/kg peptide equivalent, plasma): unmeasurable after 6 h post-dosing
- MRT ([1]; mouse, single IV 1 mg/kg peptide equivalent, plasma, two-compartmental model, n = 4, read-out: mean residence time (MRT)): 45.6 min
- AUC(0-t) ([1]; mouse, single IV 1 mg/kg, plasma, linear trapezoidal rule, n = 4, read-out: systemic exposure (AUC0-t)): 3830 ng·h/mL
- half-life ([1]; mouse, single IV (tail vein) 1 mg/kg peptide equivalent, plasma filtered (Microcon-10) so released peptide is measured, two-compartmental model, n = 4, read-out: terminal elimination half-life (t1/2) (converted)): 50.4 min
- solubility in water [2]: 1000 µg/mL (≈ 1190 µM)
SMILES: N=C(N)NCCC[C@@H]1NC(=O)[C@H](Cc2c[nH]c3ccccc23)NC(=O)[C@@H](CC2CCCCC2)NC(=O)[C@@H]2CCCN2C(=O)[C@@H](NC(=O)CCc2ccccc2)CCCNC1=O [HC-[OPdChaWR], phenylpropanoic acid-[ornithine-proline-d-cyclohexylalanine-tryptophan-arginine]] (Hydrocinnamoyl-[Orn]P[dCha]WR; lactam 1-C)
- plasma half-life in vivo ([3]; intravenous (IV) injection): 10.2 min
- t1/2 values reported previously ([3]; listed as free peptide): 10.2 min and 19.8 min
